Measurements from US6924298B2, “2-(3,5-Disubstituted-4-pyridyl)-4-(thienyl, thiazolyl or arylphenyl)-1,3-oxazoline compounds” (Dow AgroSciences LLC, priority 2000, dated 2005).
Read-outs that look alike come from different tables or passages of the source.

What was measured:
Type in all cases: in vivo
[1] = system: cotton aphid (Aphis gossypii); experiment: Insecticidal test for cotton aphid, spray on infested squash cotyledons; settings: Aphis gossypii, 72 h, read-out: CA: activity at 50 ppm against cotton aphid (% Control rating)
Description: Insecticidal Test for Cotton Aphid (Aphis gossypii)
To prepare spray solutions, 1 mg of each test compound was dissolved into 1 mL of a 90:10 acetone:ethanol solvent. This 1 mL of chemical solution was added to 19 mL of water containing 0.05% Tween 20 surfactant to produce a 50 ppm spray solution.
Squash cotyledons were infested with cotton aphid (all life stages)16-20 hours prior to application of spray solution. The solution was sprayed on both sides of each infested squash cotyledon (0.5 mL×2 each side) with a sweeping action until runoff. The plants were allowed to air dry and held for 3 days in a controlled room at 26° C. and 40% RH after which time the test was graded. Grading was by actual count using a dissecting microscope and comparison of test counts to the untreated check. Results are given in Tables 1-4 as percent control based on population reduction versus the untreated.

[2] = system: beet armyworm (Spodoptera exigua); experiment: Insecticidal test for beet armyworm, treated lepidopteran diet; settings: Spodoptera exigua, 120 h, read-out: BAW: activity at 400 ppm against beet armyworm (% Control rating)
Description: (§1) Insecticidal Test for Tobacco Budworm (Heliothis virescens), Beet Armyworm (Spodoptera exigua), and Cabbage Looper (Trichoplusia ni).
(§2) To prepare the test solution, the test compound was formulated at 400 ppm in 7.5 mL of 2 acetone:1 tap water. 250 μL of the test solution was pipetted upon the surface of 8 mL of lepidopteran diet (modified Shorey) contained in each of five one-ounce plastic cups (one cup=1 replication). A second-instar beet armyworm was placed upon the treated diet in each cup once the solvent had air-dried. The solutions remaining after completing applications to the one-ounce cups were then used as leaf-dip solutions for 3.5 cm leaf discs cut from cabbage leaves and cotton cotyledons. Five discs of each type of plant were dipped until thoroughly coated into each rate of each compound (=5 replications of each treatment). After air-drying, the treated leaf discs were placed individually into one-ounce plastic cups. Each dried, treated cotton cotyledon disc was infested with a 2nd instar tobacco budworm larva, and each cabbage leaf disc was infested with a 2nd instar cabbage looper larva. Cups containing the treated substrates and larvae were capped and then held in a growth chamber at 25° C., 50-55% RH, and 14 hr light: 10 hr dark for 5 days.

[3] = system: two-spotted spider mite (Tetranychus urticae); experiment: Insecticidal test for two-spotted spider mite, ovicide method on cotton leaf discs; settings: Tetranychus urticae, foliar, 144 h, hatched larvae after 6 days, read-out: SM: activity against two-spotted spider mite (% Control rating)
Description: Insecticidal Test for Two-Spotted Spider Mite (Tetranychus urticae) Ovicide Method: Ten adult female two-spotted spider mites were placed on eight 2.2 cm leaf discs of cotton leaf, allowed to oviposit over 24 hours, and thereafter removed. […] Discs were placed on an agar substrate and held at 24° C. and 90% RH for 6 days.

[4] = system: cabbage looper (Trichoplusia ni); experiment: Insecticidal test for cabbage looper, treated cabbage leaf disc; settings: Trichoplusia ni, foliar, 120 h, read-out: CL: activity at 400 ppm against cabbage looper (% Control rating)
Description: as §1, §2

[5] = system: sweetpotato whitefly (Bemisia tabacia); experiment: Insecticidal test for sweetpotato whitefly, spray on cotton plants; settings: 312 h, 200 ppm spray, large nymphs counted after 13 days, read-out: WF: activity at 200 ppm against whitefly (% Control rating)
Description: Insecticidal Test for Sweetpotato Whitefly (Bemisia tabacia)
Four mg of each test compound was dissolved by adding 4 mL of a 90:10 acetone:ethanol solvent mixture to the vial containing the sample compound. This solution was added to 16 mL of water containing 0.05% Tween 20 surfactant to produce 20 mL of a 200 ppm spray solution.
Five-week-old cotton plants reared in a greenhouse were stripped of all foliage except for the two uppermost true leaves that were greater than 5 cm in diameter.
These plants were then placed into a laboratory colony of whiteflies for two days for oviposition by the colony females. All whiteflies were then removed from the test plants with pressurized air. The spray solution was then applied to the test plants with a hand-held syringe fitted with hollow cone nozzle. One mL of spray solution was applied to each leaf top and bottom for a total of 4 mL per plant. Four replications of each test compound utilized a total of 16 mL spray solution. Plants were air dried and then placed in a holding chamber (28° C. and 60% RH) for 13 days. Compound efficacy was evaluated by counting, under an illuminated magnifying glass, the number of large nymphs (3rd-4th instar) per leaf.
Percent control based on reduction of large nymphs of a test compound compared to solution-only (no test compound) sprayed plants is reported in Tables 1-4.

[6] = 50 ppm spray, squash cotyledons, all life stages, 3 days
[7] = 400 ppm, treated diet surface, second-instar larvae, 5 days
[8] = 400 ppm, leaf-dip cabbage leaf disc, 2nd instar larvae, 5 days

Compound	pest or weed control at 50 ppm [1, 6] [%]	pest or weed control at 400 ppm [2, 7] [%]	pest or weed control [3] [%]	pest or weed control at 400 ppm [4, 8] [%]	pest or weed control at 200 ppm [5] [%]	pest or weed control at 400 ppm [2] [%]	pest or weed control at 400 ppm [4] [%]	pest or weed control at 50 ppm [1] [%]
C[C@H]1OC(c2c(Cl)cncc2Cl)=N[C@H]1c1ccc(I)cc1 [Compound 45, 4-[4-(4′-Iodophenyl)-5-methyl-4,5-dihydro-oxazol-2-yl]-3,5-dichloropyridines]	90 to 100							
Fc1ccc(-c2ccc(C3COC(c4c(Cl)cncc4Cl)=N3)cc2)cc1F (centres unmarked) [Compound 14]	60 to 69	80 to 89	90 to 100					
CCOc1ccc(-c2ccc(C3COC(c4c(Cl)cncc4Cl)=N3)c(C)c2)cc1 (centres unmarked) [Compound 42]	80 to 89	90 to 100	90 to 100	80 to 89				
COc1ccc(-c2ccc(C3COC(c4c(Cl)cncc4Cl)=N3)cc2)cn1 (centres unmarked) [Compound 7]		60 to 69	90 to 100	80 to 89				
Clc1cncc(Cl)c1C1=NC(c2ccc(-c3ccc4c(c3)OCO4)cc2)CO1 (centres unmarked) [Compound 13]	80 to 89	60 to 69	< 50	90 to 100				
Fc1cccc(-c2ccc(C3COC(c4c(Cl)cncc4Cl)=N3)cc2)c1 (centres unmarked) [Compound 19]	< 50		90 to 100	60 to 69	< 50			
Cc1ccc(-c2ccc(C3COC(c4c(Cl)cncc4Cl)=N3)cc2)c(F)c1 (centres unmarked) [Compound 33]	< 50	80 to 89						
Fc1cncc(F)c1C1=NC(c2ccc(I)cc2)CO1 (centres unmarked) [Compound 38, 2-(3,5-difluoro-4-pyridinyl)-4-(4-iodophenyl)oxazoline]	< 50	70 to 79	90 to 100		90 to 100			
Clc1ccccc1-c1ccc(C2COC(c3c(Cl)cncc3Cl)=N2)cc1 (centres unmarked) [Compound 18]	50 to 59		< 50	80 to 89				
FCSc1ccc(-c2ccc(C3COC(c4c(Cl)cncc4Cl)=N3)cc2)cc1 (centres unmarked) [Compound 37]	90 to 100		< 50	60 to 69				
CSc1ccc(-c2ccc(C3COC(c4c(Cl)cncc4Cl)=N3)cc2)cc1 (centres unmarked) [Compound 35]	< 50	90 to 100		90 to 100				
Cc1ccc(-c2ccc(C3COC(c4c(Cl)cncc4Cl)=N3)cc2)s1 (centres unmarked) [Compound 10]						80 to 89	90 to 100	60 to 69
C[C@@H]1OC(c2c(Cl)cncc2Cl)=N[C@H]1c1ccc(I)cc1 [Compound 46, 4-[4-(4′-Iodophenyl)-5-methyl-4,5-dihydro-oxazol-2-yl]-3,5-dichloropyridines]	< 50		< 50					
Clc1cncc(Cl)c1C1=NC(c2ccc(Br)cc2)CO1 (centres unmarked) [Compound 4, 2-(3,5-dichloro-4-pyridinyl)-4-(4-bromophenyl)oxazoline]	90 to 100		90 to 100					
Fc1cncc(F)c1C1=NC(c2ccc(-c3ccc(OC(F)(F)F)cc3)cc2)CO1 (centres unmarked) [Compound 40]	< 50	90 to 100	90 to 100	90 to 100				
Clc1cncc(Cl)c1C1=NC(c2ccc(-c3ccccc3)cc2)CO1 (centres unmarked) [Compound 28]	< 50	80 to 89	90 to 100					
FC(F)(F)c1cccc(-c2ccc(C3COC(c4c(Cl)cncc4Cl)=N3)cc2)c1 (centres unmarked) [Compound 15]	< 50	90 to 100	< 50	90 to 100				

Compound	pest or weed control at 50 ppm [1, 6] [%]	pest or weed control at 400 ppm [2, 7] [%]	pest or weed control [3] [%]	pest or weed control at 400 ppm [4, 8] [%]	pest or weed control at 200 ppm [5] [%]	pest or weed control at 400 ppm [2] [%]	pest or weed control at 400 ppm [4] [%]	pest or weed control at 50 ppm [1] [%]
Clc1cncc(Cl)c1C1=NC(c2ccc(I)cc2)CO1 (centres unmarked) [Compound 11, 2-(3,5-dichloro-4-pyridinyl)-4-(4-iodophenyl)oxazoline]	90 to 100		90 to 100		90 to 100			
Clc1ccc(C2COC(c3c(Cl)cncc3Cl)=N2)cc1 (centres unmarked) [Compound 2]	90 to 100		< 50		< 50			
FC(F)(F)c1ccc(-c2ccc(C3COC(c4c(Cl)cncc4Cl)=N3)cc2)c(Cl)c1 (centres unmarked) [Compound 17]	60 to 69	90 to 100	90 to 100	90 to 100	< 50			
Clc1cncc(Cl)c1C1=NC(c2ccccc2)CO1 (centres unmarked) [Compound 1]	< 50				< 50			
Clc1cccc(-c2ccc(C3COC(c4c(Cl)cncc4Cl)=N3)cc2)c1 (centres unmarked) [Compound 20]							90 to 100	< 50
Cc1cc(Br)ccc1C1COC(c2c(Cl)cncc2Cl)=N1 (centres unmarked) [Compound 41, 4-[4-(4-bromo-2-methylphenyl)-4,5-dihydro-1,3-oxazol-2-yl]-3,5-dichloropyridine]	90 to 100		< 50		< 50			
FC(F)(F)c1cc(-c2ccc(C3COC(c4c(Cl)cncc4Cl)=N3)cc2)cc(C(F)(F)F)c1 (centres unmarked) [Compound 24]	< 50	90 to 100			< 50			
Cc1ccc(-c2ccc(C3COC(c4c(Cl)cncc4Cl)=N3)cc2)cc1C (centres unmarked) [Compound 8]						90 to 100	80 to 89	80 to 89
Fc1ccc(-c2ccc(C3COC(c4c(Cl)cncc4Cl)=N3)cc2)cc1 (centres unmarked) [Compound 21]	90 to 100	80 to 89	90 to 100		< 50			
Fc1ccccc1-c1ccc(C2COC(c3c(Cl)cncc3Cl)=N2)cc1 (centres unmarked) [Compound 23]	90 to 100	60 to 69	90 to 100	90 to 100				
Cc1ccc(-c2ccc(C3COC(c4c(Cl)cncc4Cl)=N3)cc2)cc1F (centres unmarked) [Compound 26]	60 to 69	60 to 69		60 to 69				
FC(F)(F)c1ccccc1-c1ccc(C2COC(c3c(Cl)cncc3Cl)=N2)cc1 (centres unmarked) [Compound 22]	70 to 79							
Fc1ccc(C(F)(F)F)cc1-c1ccc(C2COC(c3c(Cl)cncc3Cl)=N2)cc1 (centres unmarked) [Compound 34]	80 to 89	60 to 69		90 to 100				
Cc1ccccc1-c1ccc(C2COC(c3c(Cl)cncc3Cl)=N2)cc1 (centres unmarked) [Compound 25]	80 to 89	90 to 100		< 50				
Fc1ccc(C2COC(c3c(Cl)cncc3Cl)=N2)cc1 (centres unmarked) [Compound 3]	80 to 89				80 to 89			
Cc1ccc(-c2ccc(C3COC(c4c(Cl)cncc4Cl)=N3)cc2)cc1 (centres unmarked) [Compound 9]						90 to 100		90 to 100
